Results from patent EP4818168A1, “FUSED RING COMPOUND, PHARMACEUTICAL COMPOSITION THEREOF AND USE THEREOF” (priority 2023, dated 2025).

What was measured:
AURKA = molecular target: T1, AURKA (Homo sapiens, UniProt O14965); format: cell-based; settings: Jurkat cells, 24 h, Table 2
T1 construct: endogenous in cells; host or cells: Jurkat cells
T1 sequence (O14965 1-403): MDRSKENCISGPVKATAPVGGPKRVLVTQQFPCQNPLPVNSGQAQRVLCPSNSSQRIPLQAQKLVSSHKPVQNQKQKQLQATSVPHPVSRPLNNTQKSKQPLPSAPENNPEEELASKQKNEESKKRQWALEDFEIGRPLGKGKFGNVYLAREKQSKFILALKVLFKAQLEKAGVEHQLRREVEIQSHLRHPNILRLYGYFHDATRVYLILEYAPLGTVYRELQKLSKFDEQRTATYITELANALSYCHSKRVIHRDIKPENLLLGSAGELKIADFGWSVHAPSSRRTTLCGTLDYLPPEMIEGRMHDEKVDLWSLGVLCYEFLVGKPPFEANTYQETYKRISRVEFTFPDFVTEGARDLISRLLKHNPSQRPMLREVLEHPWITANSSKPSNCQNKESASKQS
Source text: WB is a classical biochemical experimental method used to detect the abundance of a target protein in a sample of cells or biological tissue. It relies on specific antigen-antibody binding to detect protein signals from the sample processed by gel electrophoresis: the protein specifically binds to a primary antibody at an epitope; the primary antibody is then conjugated with a secondary antibody to amplify the signal cascade; the signal is read out by chemiluminescent or fluorescent detection. The intracellular protein content is ultimately characterized by the intensity of the optical signals. […] The DC50 value can be calculated by curve fitting of the protein WB exposure signals.
The experimental procedure is as follows: • 1. Seed Jurkat cells into a 12-well plate at 1×10^6 cells/500 µL/well. • 2. Mix the culture medium with the compound to a concentration that is twice the desired final concentration. […] Transfer the cell suspension to a centrifuge tube. Rinse the 12-well plate with PBS and then transfer the PBS from the plate to the same centrifuge tube. Centrifuge at 3000 rpm for 5 min at room temperature. Aspirate the supernatant using a vacuum pump. […] Lyse on ice for 20 min. • 4. Centrifuge the lysed sample at 13000 rpm for 20 min at 4°C. Mix the supernatant with 5× protein loading buffer. Boil at 100°C for 5 min and then cool. Store the denatured protein sample at -20°C. • 5. […] Run electrophoresis at 80 V for 20 min, and then at 120 V constant voltage for 60 min. • 6. Transfer the protein onto a nitrocellulose membrane in an ice bath at 250 mA constant current for 90 min. • 7. […] Incubate with a primary antibody overnight at 4°C. • 9. […] Incubate with a secondary antibody for 1-2 h at room temperature. • 10. […] Expose and image the membrane using a LICOR Odyssey DLx imager.

H82 cells = experiment: cells; format: cell-based; settings: Homo sapiens, NCI-H82; H82 cells, 4000 cells/well, CellTiter-Glo; read-out: IC50 in H82 Cells
Protocol: CellTiter-Glo (CTG) is a rapid cell viability test method based on ATP detection. […] Adenosine triphosphate (ATP) participates in various enzymatic reactions in organisms and is an indicator of living cell metabolism. Its content directly reflects the number of living cells and cell status. During the experiment, equal volume of CTG reagent is added to the cultured cells to measure the luminescence value. The chemiluminescent signal value is proportional to the amount of ATP, thus reflecting the number of viable cells. Therefore, cell viability can be obtained by detecting the ATP content. Compounds that affect cell viability will inhibit cell viability in a concentration-dependent manner, allowing a curve to be fitted to obtain the IC50 value.
The experimental procedure is as follows: • 11. Place the cell suspension in a 15 mL centrifuge tube, centrifuge at 1000 rpm for 5 min at room temperature, discard the supernatant, and collect the cell pellet. • 12. Resuspend the cell pellet with preheated complete cell culture medium (RPMI1640+10%FBS+1%PS), and use a Countess® automated cell counter to detect cell viability and density. […] Transfer the compound solution to a 96-well plate seeded with cells (final concentration of DMSO 0.1%), and place in a cell incubator at 37°C, 5% CO2 for 6 days. • 15. […] Protect from light during the whole process. Perform optical signal readings using a SpectraMax i3x reader. • 16. Data analysis: Remaining activity (%) = 100% * (1 - ((LumDMSO - Lummedium) - Lumsample) / (LumDMSO - LumPBS/medium)). Use GraphPad Prism 9.0 software to draw an S-shaped dose-survival rate curve and calculate the IC50 value using a nonlinear regression model.

| Compound | Percentage of AURKA Degradation Induced by 100 nM Compound in Jurkat Cells (AURKA) | Percentage of AURKA Degradation Induced by 1 µM Compound in Jurkat Cells (AURKA) | IC50 (H82 cells) [µM] |
| --- | --- | --- | --- |
| O=C1CCN(c2ccc(N3CC(N4CCN(Cc5ccc(Nc6ncc7c(n6)-c6ccc(Cl)cc6C(c6c(F)cccc6F)=NC7)cc5)CC4)C3)nc2)C(=O)N1 [Compound A101] | +++ (Degradation > 70%) | +++ (Degradation > 70%) | < 1 |
| O=C1CCN(c2ccc(N3CCN(CCCOc4cccc(Nc5ncc6c(n5)-c5ccc(Cl)cc5C(c5c(F)cccc5F)=NC6)c4)CC3)cc2)C(=O)N1 [Compound A102] | + (Degradation ≤ 30%) | + (Degradation ≤ 30%) | < 1 |
| O=C1CCN(c2ccc(N3CCN(CCC(=O)Nc4ccc(Nc5ncc6c(n5)-c5ccc(Cl)cc5C(c5c(F)cccc5F)=NC6)cc4)CC3)cc2)C(=O)N1 [Compound A104] | +++ (Degradation > 70%) | +++ (Degradation > 70%) | < 1 |
| Cn1c(CN2CCN(c3ccc(N4CCC(=O)NC4=O)cc3)CC2)cnc1-c1ccc(Nc2ncc3c(n2)-c2ccc(Cl)cc2C(c2c(F)cccc2F)=NC3)cc1 [Compound A106] | +++ (Degradation > 70%) | +++ (Degradation > 70%) | < 1 |
| O=C1CCN(c2ccc(NCCN3CCn4c(cnc4-c4ccc(Nc5ncc6c(n5)-c5ccc(Cl)cc5C(c5c(F)cccc5F)=NC6)cc4)C3)cc2)C(=O)N1 [Compound A107] | ++ (30% < Degradation ≤ 70%) | ++ (30% < Degradation ≤ 70%) | < 1 |
| O=C1CCN(c2ccc(N3CCC4(CC3)CC(NC(=O)c3ccc(Nc5ncc6c(n5)-c5ccc(F)cc5C(c5c(F)cccc5F)=NC6)cc3)C4)nc2)C(=O)N1 [Compound A109] | ++ (30% < Degradation ≤ 70%) | ++ (30% < Degradation ≤ 70%) | < 1 |
| Cc1cc(N2CCC3(CC2)CC(NC(=O)c2ccc(Nc4ncc5c(n4)-c4ccc(Cl)cc4C(c4c(F)cccc4F)=NC5)cc2)C3)ncc1N1CCC(=O)NC1=O [Compound A110] | ++ (30% < Degradation ≤ 70%) | ++ (30% < Degradation ≤ 70%) | < 1 |
| Cc1nc(N2CCC3(CC2)CC(NC(=O)c2ccc(Nc4ncc5c(n4)-c4ccc(Cl)cc4C(c4c(F)cccc4F)=NC5)cc2)C3)ccc1N1CCC(=O)NC1=O [Compound A112] | +++ (Degradation > 70%) | +++ (Degradation > 70%) | < 1 |
| O=C1CCN(c2ccc(N3CCC4(CC3)CC(NC(=O)c3ccc(Nc5ncc6c(n5)-c5ccc(C7CC7)cc5C(c5c(F)cccc5F)=NC6)cc3)C4)nc2)C(=O)N1 [Compound A115] | +++ (Degradation > 70%) | +++ (Degradation > 70%) | < 1 |
| O=C1CCN(c2ccc(N3CCC4(CC3)CC(NC(=O)c3ccc(Nc5ncc6c(n5)-c5ccccc5C(c5c(F)cccc5F)=NC6)cc3)C4)nc2)C(=O)N1 [Compound A116] | +++ (Degradation > 70%) | +++ (Degradation > 70%) | < 1 |
